{
  "source": "patent US20080044474A1",
  "about": "“Dispersions of nanoureas comprising biologically active compounds” (Bayer MaterialScience AG, priority 2006, published 2008)",
  "format_in_all_cases": "cell-based",
  "key": {"[1]": {"tested_on": "Staphylococcus epidermidis (ATC 14990)", "assay": "Agar plate inhibition halo test according to Example 5, overnight culture", "procedure": "Cells of Staphylococcus epidermidis 498 and Bacillus subtilis 168 are plated out on agar plates such that, after incubation overnight at 37° C., they have formed a visible cell lawn on the agar. […] A hole was in each case punched in the centre of the plates. […] After incubation overnight, the agar was examined for diffusing antibiotic active compounds in that the missing cell lawn around the punched-out hole can be seen (“inhibition halos”). These inhibition halos were compared with an agar plate without further additives and an agar plate with an active compound-free nanourea dispersion. A test according to Example 5 was carried out in an overnight culture of Staphylococcus epidermidis (ATC 14990). The underlying active compound-loaded dispersions F to K were in turn prepared analogously to Example 2. As comparisons L to O, aqueous solutions having various concentrations of ciprofloxacin (Cipro) were additionally tested."}, "[2]": {"tested_on": "Bacillus subtilis 168", "assay": "Agar plate inhibition halo test of active compound-loaded nanourea dispersions", "conditions": "100 μl dialysed active compound-loaded nanourea dispersion of Example 2 (about 3% active compound on solids), incubation overnight, Müller-Hinton agar", "procedure": "(§1) Cells of Staphylococcus epidermidis 498 and Bacillus subtilis 168 are plated out on agar plates such that, after incubation overnight at 37° C., they have formed a visible cell lawn on the agar. The agar contained a complex nutrient-rich medium (Müller-Hinton medium, OD600=0.1 set; 200 μl plated out per plate, dried at room temperature for one hour). A hole was in each case punched in the centre of the plates."}, "[3]": {"tested_on": "Staphylococcus epidermidis 498", "assay": "Agar plate inhibition halo test of active compound-loaded nanourea dispersions", "conditions": "100 μl dialysed active compound-loaded nanourea dispersion of Example 2 (about 3% active compound on solids), incubation overnight, Müller-Hinton agar", "procedure": "as §1"}, "[4]": {"conditions": "active compound-loaded nanourea dispersion prepared analogously to Example 2"}},
  "data": [
    {"molecule": "CC(=O)Oc1ccccc1C(=O)O", "note": "[Acetylsalicylic acid]", "values": [
      {"measurement": "Inhibition halo", "setting": "[1]; [4]", "value": 13, "unit": "mm"}
    ]},
    {"molecule": "O=C(O)c1cn(C2CC2)c2cc(N3CCNCC3)c(F)cc2c1=O", "note": "[Cipro, Ciprofloxacin]", "values": [
      {"measurement": "Inhibition halo", "setting": "[1]; aqueous solution, 0.001 mM (comparison O)", "value": 11, "unit": "mm"},
      {"measurement": "Inhibition halo", "setting": "[1]; aqueous solution, 0.01 mM (comparison N)", "value": 26, "unit": "mm"},
      {"measurement": "Inhibition halo", "setting": "[1]; aqueous solution, 0.1 mM (comparison M)", "value": 36, "unit": "mm"},
      {"measurement": "Inhibition halo", "setting": "[1]; aqueous solution, 1 mM (comparison L)", "value": 43, "unit": "mm"}
    ]},
    {"molecule": "C=O", "note": "[Formaldehyde]", "values": [
      {"measurement": "Inhibition halo", "setting": "[1]; [4]", "value": 21, "unit": "mm"}
    ]},
    {"molecule": "COCN(COC)c1nc(N(COC)COC)nc(N(COC)COC)n1", "note": "[Hexamethoxymethylmelamine]", "values": [
      {"measurement": "Inhibition halo", "setting": "[1]; [4]", "value": 13, "unit": "mm"}
    ]},
    {"molecule": "O=C(O)c1ccccc1O", "note": "[Salicylic acid]", "values": [
      {"measurement": "Inhibition halo", "setting": "[1]; [4]", "value": 38, "unit": "mm"}
    ]},
    {"molecule": "O=[N+]([O-])[O-].[Ag+]", "note": "[Silver nitrate]", "values": [
      {"measurement": "Inhibition halo (diameter minus the diameter of the punched-out hole)", "setting": "[2]", "value": 300, "unit": "μm"},
      {"measurement": "Inhibition halo (diameter minus the diameter of the punched-out hole)", "setting": "[3]", "value": 400, "unit": "μm"}
    ]},
    {"molecule": "Potassium iodide-iodine complex", "values": [
      {"measurement": "Inhibition halo", "setting": "[1]; [4]", "value": 14, "unit": "mm"}
    ]}
  ]
}
